# Measured values taken from patent US12569509B2, “Method and composition for preventing and treating viral infections” (priority 2017, dated 2026).
# “Also recorded” adds a separate entry of the source.
# Columns and labels:
# human PBMC [1] = assay: LPS stimulated cytokine secretion in human PBMC pretreated with compounds (Phase 2); type: cell-based; design: TNF-α concentration in supernatant / IL-1β concentration in supernatant / IL-6 concentration in supernatant / IL-2 concentration in supernatant / IFN-g concentration in supernatant: unit of the concentration uncertain; conditions: for Effect on LPS stimulated secretion of IL-1b / Effect on LPS stimulated secretion of IL-6: 200 mM (so in the source), 2 h pretreatment, 1 ng/mL LPS 8 hours; for IL-2 concentration in supernatant / TNF-α concentration in supernatant / IL-1β concentration in supernatant / IFN-g concentration in supernatant / IL-6 concentration in supernatant: 8-hour 1 ng/mL LPS stimulation; for IL-2 concentration in supernatant: LLOQ = 1.698 pg/mL; for TNF-α concentration in supernatant: LLOQ = 2.018 pg/mL; for IL-1β concentration in supernatant: LLOQ = 2.299 pg/mL; for IFN-g concentration in supernatant: LLOQ = 2.792 pg/mL; for IL-6 concentration in supernatant: LLOQ = 0.831
# Text: Results are represented as fold-change relative to LPS treatment alone for each cytokine calculated by means from 3 separate donors.
# RPMI medium alone, RPMI supplemented with 0.2% DMSO (to mimic treatment conditions) or LPS stimulation alone were used as controls.
# Except for the two negative control conditions, all 3 donors responded to all experimental conditions tested with the secretion of TNF-α, IL-1β, and IL-6 albeit with a high degree of variability.
# human PBMC [2] = assay: Test compound induced cytokine secretion in human PBMC without LPS, 10 or 26 hours (Phase 1); conditions: 100 mM (so in the source), 10 hours, no LPS
# Protocol: Secretion of the cytokines TNF-α (A), IL-1β (B) and IL-6 (C) were measured in supernatant of PBMC cultured in the presence of test compounds using a Luminex platform with the Milliplex MAP Human High Sensitivity T Cell Panel Immunology Multiplex Assay. Results are represented as a mean from 3 separate donors in pg/mL.
# Whole blood was collected from 3 human donors and peripheral blood mononuclear cells (PBMC) were isolated using the Ficoll-Paque density gradient method. PBMC were then plated and left untouched for 2 hours to account for a 2 hours pretreatement period (see below for details), and incubated for 8 or 24 hours in a humidified incubator set to maintain 37° C. with 5% CO2, with different concentrations of LPS as per Table 11 in order to determine the optimal stimulation conditions to detect cytokine release. […] RPMI medium alone or supplemented with 0.1% DMSO (to mimic treatment conditions) were used as negative controls.
# At the end of the incubation period, supernatant samples were recovered and stored at −80° C. until analysis (in duplicate) using a Luminex platform with the Milliplex MAP Human High Sensitivity T Cell Panel Immunology Multiplex Assay (Cat. No. HSTCMAG-28SK) with the following selected cytokines of interest: IL-1, IL-2, IL-6, IFN-g and TNF-α. Each assay was defined by one calibration curve and 2 sets of QCs and the results were expressed as pg/mL.
smiles,measurement,setting,value
"O=C(O)c1cc(O)c(O)c(O)c1 [Gallic Acid, Gallic acid]",Effect on LPS stimulated secretion of IL-1b,human PBMC [1],inhibition
same,Effect on LPS stimulated secretion of IL-6,human PBMC [1],inhibition
same,Effect on LPS stimulated secretion of IL-1b,human PBMC [1]; listed as gallic acid,decrease; also recorded: inhibits
same,Effect on LPS stimulated secretion of IL-6,human PBMC [1]; listed as gallic acid,decrease; also recorded: inhibits
same,IL-2 concentration in supernatant,"human PBMC [1]; Donor 1, 10 (unit uncertain)",<LLOQ
same,TNF-α concentration in supernatant,"human PBMC [1]; Donor 1, 10 (unit uncertain)",2295.37 pg/mL
same,IL-1β concentration in supernatant,"human PBMC [1]; Donor 1, 10 (unit uncertain)",4009.57 pg/mL
same,IFN-g concentration in supernatant,"human PBMC [1]; Donor 1, 10 (unit uncertain)",<LLOQ
same,IL-6 concentration in supernatant,"human PBMC [1]; Donor 1, 10 (unit uncertain)",1244.44 pg/mL
same,IL-2 concentration in supernatant,"human PBMC [1]; Donor 1, 100 (unit uncertain)",<LLOQ
same,TNF-α concentration in supernatant,"human PBMC [1]; Donor 1, 100 (unit uncertain)",2673.83 pg/mL
same,IL-1β concentration in supernatant,"human PBMC [1]; Donor 1, 100 (unit uncertain)",2029.63 pg/mL
same,IFN-g concentration in supernatant,"human PBMC [1]; Donor 1, 100 (unit uncertain)",<LLOQ
same,IL-6 concentration in supernatant,"human PBMC [1]; Donor 1, 100 (unit uncertain)",776.23 pg/mL
same,IL-2 concentration in supernatant,"human PBMC [1]; Donor 1, 200 (unit uncertain)",<LLOQ
same,TNF-α concentration in supernatant,"human PBMC [1]; Donor 1, 200 (unit uncertain)",1973.87 pg/mL
same,IL-1β concentration in supernatant,"human PBMC [1]; Donor 1, 200 (unit uncertain)",905.16 pg/mL
same,IFN-g concentration in supernatant,"human PBMC [1]; Donor 1, 200 (unit uncertain)",<LLOQ
same,IL-6 concentration in supernatant,"human PBMC [1]; Donor 1, 200 (unit uncertain)",466.09 pg/mL
same,IL-2 concentration in supernatant,"human PBMC [1]; Donor 2, 10 (unit uncertain)",<LLOQ
same,TNF-α concentration in supernatant,"human PBMC [1]; Donor 2, 10 (unit uncertain)",924.89 pg/mL
same,IL-1β concentration in supernatant,"human PBMC [1]; Donor 2, 10 (unit uncertain)",2259.03 pg/mL
same,IFN-g concentration in supernatant,"human PBMC [1]; Donor 2, 10 (unit uncertain)",<LLOQ
same,IL-6 concentration in supernatant,"human PBMC [1]; Donor 2, 10 (unit uncertain)",547.26 pg/mL
same,IL-2 concentration in supernatant,"human PBMC [1]; Donor 2, 100 (unit uncertain)",<LLOQ
same,TNF-α concentration in supernatant,"human PBMC [1]; Donor 2, 100 (unit uncertain)",2001.65 pg/mL
same,IL-1β concentration in supernatant,"human PBMC [1]; Donor 2, 100 (unit uncertain)",1867.42 pg/mL
same,IFN-g concentration in supernatant,"human PBMC [1]; Donor 2, 100 (unit uncertain)",<LLOQ
same,IL-6 concentration in supernatant,"human PBMC [1]; Donor 2, 100 (unit uncertain)",694.6 pg/mL
same,IL-2 concentration in supernatant,"human PBMC [1]; Donor 2, 200 (unit uncertain)",<LLOQ
same,TNF-α concentration in supernatant,"human PBMC [1]; Donor 2, 200 (unit uncertain)",1867.55 pg/mL
same,IL-1β concentration in supernatant,"human PBMC [1]; Donor 2, 200 (unit uncertain)",858.76 pg/mL
same,IFN-g concentration in supernatant,"human PBMC [1]; Donor 2, 200 (unit uncertain)",<LLOQ
same,IL-6 concentration in supernatant,"human PBMC [1]; Donor 2, 200 (unit uncertain)",426.3 pg/mL
same,IL-2 concentration in supernatant,"human PBMC [1]; Donor 3, 10 (unit uncertain)",<LLOQ
same,TNF-α concentration in supernatant,"human PBMC [1]; Donor 3, 10 (unit uncertain)",4990.73 pg/mL
same,IL-1β concentration in supernatant,"human PBMC [1]; Donor 3, 10 (unit uncertain)",4065.13 pg/mL
same,IFN-g concentration in supernatant,"human PBMC [1]; Donor 3, 10 (unit uncertain)",<LLOQ
same,IL-6 concentration in supernatant,"human PBMC [1]; Donor 3, 10 (unit uncertain)",547.26 pg/mL
same,IL-2 concentration in supernatant,"human PBMC [1]; Donor 3, 100 (unit uncertain)",<LLOQ
same,TNF-α concentration in supernatant,"human PBMC [1]; Donor 3, 100 (unit uncertain)",3070.21 pg/mL
same,IL-1β concentration in supernatant,"human PBMC [1]; Donor 3, 100 (unit uncertain)",1788.4 pg/mL
same,IFN-g concentration in supernatant,"human PBMC [1]; Donor 3, 100 (unit uncertain)",<LLOQ
same,IL-6 concentration in supernatant,"human PBMC [1]; Donor 3, 100 (unit uncertain)",694.6 pg/mL
same,IL-2 concentration in supernatant,"human PBMC [1]; Donor 3, 200 (unit uncertain)",<LLOQ
same,TNF-α concentration in supernatant,"human PBMC [1]; Donor 3, 200 (unit uncertain)",4121.3 pg/mL
same,IL-1β concentration in supernatant,"human PBMC [1]; Donor 3, 200 (unit uncertain)",1478.91 pg/mL
same,IFN-g concentration in supernatant,"human PBMC [1]; Donor 3, 200 (unit uncertain)",<LLOQ
same,IL-6 concentration in supernatant,"human PBMC [1]; Donor 3, 200 (unit uncertain)",426.3 pg/mL
same,"TNF-α, IL-1β, and/or IL-6 production, compound alone",human PBMC [2],minor increases
